# US8192962B2, “Processes for detecting toxic substances” (Daikin Industries, Ltd., priority 2001, dated 2012)
# Test system: Detoxification protein genes
# Assay: DNA chip mRNA expression in yeast, detoxification protein genes (Table 8)
# Assay type: cell-based, Saccharomyces cerevisiae S288C
# Summary of the method: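 S. cerevisiae S288C grown at 25° C. in YPD to log phase, then exposed 2 h to a toxicant at a growth-inhibiting, non-lethal concentration; untreated cells as control. Poly(A) mRNA reverse-transcribed with Cy3-dUTP or Cy5-dUTP, hybridized >12 h at 65° C. to whole-genome yeast DNA chip; value = fluorescence ratio treated/untreated.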
structure (smiles),measurement,setting,value
"Oc1cc(Cl)c(Cl)cc1Cl [(6), 2,4,5-trichlorophenol]",The level of expressed mRNA in the presence of chemical substance/The level of expressed mRNA in the absence of chemical substance,yeast gene YBL064C,5.2
same,The level of expressed mRNA in the presence of chemical substance/The level of expressed mRNA in the absence of chemical substance,yeast gene YBR008C,1.0
same,The level of expressed mRNA in the presence of chemical substance/The level of expressed mRNA in the absence of chemical substance,yeast gene YBR145W,11.5
same,The level of expressed mRNA in the presence of chemical substance/The level of expressed mRNA in the absence of chemical substance,yeast gene YBR244W,1.0
same,The level of expressed mRNA in the presence of chemical substance/The level of expressed mRNA in the absence of chemical substance,yeast gene YBR293W,0.9
same,The level of expressed mRNA in the presence of chemical substance/The level of expressed mRNA in the absence of chemical substance,yeast gene YCL035C,5.1
same,The level of expressed mRNA in the presence of chemical substance/The level of expressed mRNA in the absence of chemical substance,yeast gene YCR083W,2.4
same,The level of expressed mRNA in the presence of chemical substance/The level of expressed mRNA in the absence of chemical substance,yeast gene YDL100C,2.1
same,The level of expressed mRNA in the presence of chemical substance/The level of expressed mRNA in the absence of chemical substance,yeast gene YDL168W,1.4
same,The level of expressed mRNA in the presence of chemical substance/The level of expressed mRNA in the absence of chemical substance,yeast gene YDR256C,0.5
same,The level of expressed mRNA in the presence of chemical substance/The level of expressed mRNA in the absence of chemical substance,yeast gene YDR453C,1.7
same,The level of expressed mRNA in the presence of chemical substance/The level of expressed mRNA in the absence of chemical substance,yeast gene YDR513W,2.1
same,The level of expressed mRNA in the presence of chemical substance/The level of expressed mRNA in the absence of chemical substance,yeast gene YDR538W,1.0
same,The level of expressed mRNA in the presence of chemical substance/The level of expressed mRNA in the absence of chemical substance,yeast gene YEL027W,1.1
same,The level of expressed mRNA in the presence of chemical substance/The level of expressed mRNA in the absence of chemical substance,yeast gene YEL065W,2.3
same,The level of expressed mRNA in the presence of chemical substance/The level of expressed mRNA in the absence of chemical substance,yeast gene YER185W,1.2
same,The level of expressed mRNA in the presence of chemical substance/The level of expressed mRNA in the absence of chemical substance,yeast gene YFL050C,0.9
same,The level of expressed mRNA in the presence of chemical substance/The level of expressed mRNA in the absence of chemical substance,yeast gene YGL013C,2.3
same,The level of expressed mRNA in the presence of chemical substance/The level of expressed mRNA in the absence of chemical substance,yeast gene YGL254W,0.7
same,The level of expressed mRNA in the presence of chemical substance/The level of expressed mRNA in the absence of chemical substance,yeast gene YGR088W,1.3
same,The level of expressed mRNA in the presence of chemical substance/The level of expressed mRNA in the absence of chemical substance,yeast gene YGR138C,0.8
same,The level of expressed mRNA in the presence of chemical substance/The level of expressed mRNA in the absence of chemical substance,yeast gene YGR197C,0.5
same,The level of expressed mRNA in the presence of chemical substance/The level of expressed mRNA in the absence of chemical substance,yeast gene YGR209C,1.9
same,The level of expressed mRNA in the presence of chemical substance/The level of expressed mRNA in the absence of chemical substance,yeast gene YGR224W,0.8
same,The level of expressed mRNA in the presence of chemical substance/The level of expressed mRNA in the absence of chemical substance,yeast gene YHL040C,7.3
same,The level of expressed mRNA in the presence of chemical substance/The level of expressed mRNA in the absence of chemical substance,yeast gene YHL047C,8.4
same,The level of expressed mRNA in the presence of chemical substance/The level of expressed mRNA in the absence of chemical substance,yeast gene YHR008C,1.0
same,The level of expressed mRNA in the presence of chemical substance/The level of expressed mRNA in the absence of chemical substance,yeast gene YHR048W,0.8
same,The level of expressed mRNA in the presence of chemical substance/The level of expressed mRNA in the absence of chemical substance,yeast gene YHR053C,1.3
same,The level of expressed mRNA in the presence of chemical substance/The level of expressed mRNA in the absence of chemical substance,yeast gene YHR055C,1.6
same,The level of expressed mRNA in the presence of chemical substance/The level of expressed mRNA in the absence of chemical substance,yeast gene YIR002C,2.2
same,The level of expressed mRNA in the presence of chemical substance/The level of expressed mRNA in the absence of chemical substance,yeast gene YIR038C,2.5
same,The level of expressed mRNA in the presence of chemical substance/The level of expressed mRNA in the absence of chemical substance,yeast gene YJL101C,1.0
same,The level of expressed mRNA in the presence of chemical substance/The level of expressed mRNA in the absence of chemical substance,yeast gene YJR104C,1.4
same,The level of expressed mRNA in the presence of chemical substance/The level of expressed mRNA in the absence of chemical substance,yeast gene YKL026C,1.8
same,The level of expressed mRNA in the presence of chemical substance/The level of expressed mRNA in the absence of chemical substance,yeast gene YKL064W,1.5
same,The level of expressed mRNA in the presence of chemical substance/The level of expressed mRNA in the absence of chemical substance,yeast gene YKR066C,0.9
same,The level of expressed mRNA in the presence of chemical substance/The level of expressed mRNA in the absence of chemical substance,yeast gene YKR105C,1.2
same,The level of expressed mRNA in the presence of chemical substance/The level of expressed mRNA in the absence of chemical substance,yeast gene YKR106W,1.6
same,The level of expressed mRNA in the presence of chemical substance/The level of expressed mRNA in the absence of chemical substance,yeast gene YLL028W,1.7
same,The level of expressed mRNA in the presence of chemical substance/The level of expressed mRNA in the absence of chemical substance,yeast gene YLL057C,1.0
same,The level of expressed mRNA in the presence of chemical substance/The level of expressed mRNA in the absence of chemical substance,yeast gene YLL060C,1.4
same,The level of expressed mRNA in the presence of chemical substance/The level of expressed mRNA in the absence of chemical substance,yeast gene YLR043C,1.4
same,The level of expressed mRNA in the presence of chemical substance/The level of expressed mRNA in the absence of chemical substance,yeast gene YLR046C,3.8
same,The level of expressed mRNA in the presence of chemical substance/The level of expressed mRNA in the absence of chemical substance,yeast gene YML028W,1.2
same,The level of expressed mRNA in the presence of chemical substance/The level of expressed mRNA in the absence of chemical substance,yeast gene YML116W,0.9
same,The level of expressed mRNA in the presence of chemical substance/The level of expressed mRNA in the absence of chemical substance,yeast gene YMR015C,1.3
same,The level of expressed mRNA in the presence of chemical substance/The level of expressed mRNA in the absence of chemical substance,yeast gene YMR038C,1.0
same,The level of expressed mRNA in the presence of chemical substance/The level of expressed mRNA in the absence of chemical substance,yeast gene YNL239W,1.8
same,The level of expressed mRNA in the presence of chemical substance/The level of expressed mRNA in the absence of chemical substance,yeast gene YNL241C,0.9
same,The level of expressed mRNA in the presence of chemical substance/The level of expressed mRNA in the absence of chemical substance,yeast gene YNL259C,3.9
same,The level of expressed mRNA in the presence of chemical substance/The level of expressed mRNA in the absence of chemical substance,yeast gene YOL158C,2.0
same,The level of expressed mRNA in the presence of chemical substance/The level of expressed mRNA in the absence of chemical substance,yeast gene YOR031W,0.9
same,The level of expressed mRNA in the presence of chemical substance/The level of expressed mRNA in the absence of chemical substance,yeast gene YOR153W,7.4
same,The level of expressed mRNA in the presence of chemical substance/The level of expressed mRNA in the absence of chemical substance,yeast gene YOR247W,0.2
same,The level of expressed mRNA in the presence of chemical substance/The level of expressed mRNA in the absence of chemical substance,yeast gene YOR251C,0.9
same,The level of expressed mRNA in the presence of chemical substance/The level of expressed mRNA in the absence of chemical substance,yeast gene YOR273C,0.4
same,The level of expressed mRNA in the presence of chemical substance/The level of expressed mRNA in the absence of chemical substance,yeast gene YPL163C,0.6
same,The level of expressed mRNA in the presence of chemical substance/The level of expressed mRNA in the absence of chemical substance,yeast gene YPR200C,0.8
